We go through one compound from BindingDB's records for patent US9427428 (Janssen Ireland, 2016).

For this experiment, the target named is T1, Genome polyprotein [810-3010] (Hepatitis C virus genotype 1b (isolate Con1), UniProt Q9WMX2).
T1 construct: 810-3010
Description: Stable Replicon Assay. An excerpt:
The assay utilized the stably transfected cell line Huh-7 luc/neo (hereafter referred to as Huh-Luc). This cell line harbors an RNA encoding a bicistronic expression construct comprising the wild type NS3-NS5B regions of HCV type 1b translated from an Internal Ribosome Entry Site (IRES) from encephalomyocarditis virus (EMCV), preceded by a reporter portion (FfL-luciferase), and a selectable marker portion (neoR, neomycine phosphotransferase). The construct is flanked by 5' and 3' NTRs (non-translated regions) from HCV type 1b. Continued culture of the replicon cells in the presence of G418 (neoR) is dependent on the replication of the HCV RNA. The stably transfected replicon cells that replicate HCV RNA autonomously and to high levels, encoding inter alia luciferase, were used for screening the antiviral compounds. The replicon cells were plated in 384 well plates in the presence of the test and control compounds which were added in various concentrations. Following an incubation of three days, HCV replication was measured by assaying luciferase activity (using standard luciferase assay substrates and reagents and a Perkin Elmer ViewLux™ ultraHTS microplate imager). […] The inhibitory activity of the compound was monitored on the Huh-Luc cells, enabling a dose-response curve for each test compound.

T1 sequence (Q9WMX2 810-3010): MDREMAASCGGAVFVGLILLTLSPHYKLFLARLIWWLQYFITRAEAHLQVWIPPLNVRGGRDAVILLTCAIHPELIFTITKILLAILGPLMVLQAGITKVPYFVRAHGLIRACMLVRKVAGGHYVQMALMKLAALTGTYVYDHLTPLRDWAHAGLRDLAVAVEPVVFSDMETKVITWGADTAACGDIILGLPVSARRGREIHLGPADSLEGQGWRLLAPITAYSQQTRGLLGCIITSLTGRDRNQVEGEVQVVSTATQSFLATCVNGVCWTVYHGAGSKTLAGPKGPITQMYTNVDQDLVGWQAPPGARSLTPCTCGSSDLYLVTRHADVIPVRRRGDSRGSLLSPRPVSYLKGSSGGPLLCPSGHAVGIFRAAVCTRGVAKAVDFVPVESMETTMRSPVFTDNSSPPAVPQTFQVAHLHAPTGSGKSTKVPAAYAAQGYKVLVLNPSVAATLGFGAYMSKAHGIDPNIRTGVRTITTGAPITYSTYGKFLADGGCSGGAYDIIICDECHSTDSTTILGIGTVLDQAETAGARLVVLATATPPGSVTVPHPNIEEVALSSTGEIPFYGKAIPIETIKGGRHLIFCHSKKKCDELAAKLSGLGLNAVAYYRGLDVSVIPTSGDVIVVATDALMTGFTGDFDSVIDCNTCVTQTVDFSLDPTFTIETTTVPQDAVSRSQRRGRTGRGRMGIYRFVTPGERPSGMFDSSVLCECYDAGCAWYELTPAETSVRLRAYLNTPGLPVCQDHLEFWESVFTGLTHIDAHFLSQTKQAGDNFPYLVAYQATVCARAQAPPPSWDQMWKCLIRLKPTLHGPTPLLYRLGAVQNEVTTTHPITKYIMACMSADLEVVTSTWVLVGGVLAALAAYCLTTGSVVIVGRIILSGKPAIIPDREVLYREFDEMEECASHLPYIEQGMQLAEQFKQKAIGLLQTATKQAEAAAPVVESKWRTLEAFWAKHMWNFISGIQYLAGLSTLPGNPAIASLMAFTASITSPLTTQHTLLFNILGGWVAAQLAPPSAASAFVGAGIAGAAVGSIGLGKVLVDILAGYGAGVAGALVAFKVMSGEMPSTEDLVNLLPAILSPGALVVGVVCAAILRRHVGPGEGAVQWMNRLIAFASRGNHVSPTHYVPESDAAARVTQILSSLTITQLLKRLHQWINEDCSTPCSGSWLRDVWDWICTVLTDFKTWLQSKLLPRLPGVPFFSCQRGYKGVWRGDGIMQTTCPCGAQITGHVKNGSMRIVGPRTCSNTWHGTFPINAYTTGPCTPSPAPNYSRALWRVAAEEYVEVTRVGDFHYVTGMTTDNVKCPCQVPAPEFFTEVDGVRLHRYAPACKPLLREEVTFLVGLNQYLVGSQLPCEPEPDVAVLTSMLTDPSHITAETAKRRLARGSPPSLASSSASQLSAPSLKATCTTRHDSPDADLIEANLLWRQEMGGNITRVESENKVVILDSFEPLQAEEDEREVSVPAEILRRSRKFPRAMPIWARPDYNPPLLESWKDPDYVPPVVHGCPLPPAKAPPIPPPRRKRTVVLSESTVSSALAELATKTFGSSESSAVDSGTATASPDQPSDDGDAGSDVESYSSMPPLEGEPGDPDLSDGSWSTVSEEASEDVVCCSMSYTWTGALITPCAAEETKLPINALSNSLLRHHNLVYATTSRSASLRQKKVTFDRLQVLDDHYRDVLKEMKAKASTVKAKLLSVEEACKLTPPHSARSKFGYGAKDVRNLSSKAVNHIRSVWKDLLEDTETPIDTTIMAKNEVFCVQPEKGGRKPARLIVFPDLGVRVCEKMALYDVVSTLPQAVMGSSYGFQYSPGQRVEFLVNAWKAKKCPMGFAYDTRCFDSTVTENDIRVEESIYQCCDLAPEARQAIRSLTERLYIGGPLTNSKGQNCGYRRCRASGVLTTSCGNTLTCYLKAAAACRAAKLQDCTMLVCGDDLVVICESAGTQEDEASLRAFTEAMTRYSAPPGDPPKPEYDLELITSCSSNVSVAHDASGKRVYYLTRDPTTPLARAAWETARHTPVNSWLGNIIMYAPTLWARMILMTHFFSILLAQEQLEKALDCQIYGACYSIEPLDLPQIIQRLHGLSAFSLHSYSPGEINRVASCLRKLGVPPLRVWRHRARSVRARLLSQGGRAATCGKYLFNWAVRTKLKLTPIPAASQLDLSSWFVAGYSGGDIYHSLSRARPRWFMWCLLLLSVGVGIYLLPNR

On to `CC[C@H](C)[C@H](NC(=O)OC)C(=O)N1CCC[C@H]1c1ncc(-c2ccc3cc(-c4ccc5[nH]c([C@@H]6CCCN6C(=O)[C@@H](NC(=O)OC)[C@@H](C)OC)nc5c4)ccc3c2)[nH]1` [US9427428, 21], for which the EC50 is 2.2 nM.
